Here are results for nine compounds from US7265130B2, “NPY Y5 antagonist” (Shionogi & Co., Ltd., priority 1999, dated 2007).

In assay [1] the target is T1, human NPY Y5 receptor (Homo sapiens, UniProt Q15761).
T1 construct: expressed in transfected cells
T1 sequence (Q15761 1-445): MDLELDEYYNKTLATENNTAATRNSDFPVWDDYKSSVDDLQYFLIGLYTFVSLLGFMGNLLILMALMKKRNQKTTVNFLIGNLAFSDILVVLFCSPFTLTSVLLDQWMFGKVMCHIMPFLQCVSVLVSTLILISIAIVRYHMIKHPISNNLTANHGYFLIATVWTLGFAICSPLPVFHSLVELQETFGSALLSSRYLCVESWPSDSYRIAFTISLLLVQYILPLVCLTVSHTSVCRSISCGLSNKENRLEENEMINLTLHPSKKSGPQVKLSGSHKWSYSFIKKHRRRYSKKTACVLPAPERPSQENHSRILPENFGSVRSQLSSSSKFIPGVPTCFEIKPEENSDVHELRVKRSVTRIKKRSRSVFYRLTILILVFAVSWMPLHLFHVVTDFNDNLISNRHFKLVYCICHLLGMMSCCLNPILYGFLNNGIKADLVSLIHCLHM
In words: Affinity for NPY Y5 receptor ([125I] peptide YY binding, CHO cell membranes). To be noted: inhibition of specific [125I] peptide YY binding, membranes of CHO cells expressing NPY Y5 receptor. In a few lines: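 Membranes from CHO cells stably expressing human NPY Y5 receptor incubated with test compound and [125I] peptide YY (60 pM final) in HEPES-Hanks buffer with 0.1% BSA, pH 7.4, 25° C for 2 hours. Filter-bound radioactivity counted; non-specific binding with 200 nM peptide YY; IC50 against specific binding calculated.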

Assay [2] has as its target T1, human NPY Y5 receptor. The assay is described as follows: cAMP production inhibitory activity in CHO cells. The class given is cell-based. The settings on record: against 50 nM NPY inhibition of forskolin stimulated cAMP, CHO cells expressing human NPY Y5 receptor. In a few lines:
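CHO cells expressing human NPY Y5 receptor preincubated 20 min at 37 °C with 2.5 mM IBMX, then with compound for 5 min. Stimulated with 50 nM NPY plus 10 μM forskolin for 30 min. Reaction stopped with 1N HCl; supernatant cAMP measured by EIA.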

Another assay addresses T2, NPY Y1 receptor (Homo sapiens, UniProt P25929).
T2 construct: membranes prepared from Y1-expression cells (human neuroblastoma, SK-N-MC); endogenous in cells; host or cells: SK-N-MC human neuroblastoma cells (membranes)
T2 sequence (P25929 1-384): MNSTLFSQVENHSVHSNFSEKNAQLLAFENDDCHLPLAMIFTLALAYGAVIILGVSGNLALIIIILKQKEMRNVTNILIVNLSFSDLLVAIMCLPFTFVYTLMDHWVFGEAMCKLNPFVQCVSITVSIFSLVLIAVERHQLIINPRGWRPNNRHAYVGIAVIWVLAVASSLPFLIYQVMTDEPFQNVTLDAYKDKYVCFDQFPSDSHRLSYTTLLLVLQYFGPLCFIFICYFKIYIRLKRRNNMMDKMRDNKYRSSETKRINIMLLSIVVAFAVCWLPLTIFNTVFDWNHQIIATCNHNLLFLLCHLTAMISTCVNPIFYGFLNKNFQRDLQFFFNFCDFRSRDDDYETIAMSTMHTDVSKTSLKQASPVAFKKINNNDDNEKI
The assay is described as follows: Affinity for NPY Y1 receptor (membranes from SK-N-MC cells). To be noted: membranes from Y1-expression cells (human neuroblastoma, SK-N-MC); read-out: Binding IC50 for NPY Y1 receptor. The method, then:
(§1) The membranes prepared from the above CHO cells expressing NPY Y5 receptor, the compound of the present invention and 30,000 cpm [^125I] peptide YY (60 pM of final concentration: Amersham) were incubated in the assay buffer (20 mM HEPES-Hanks buffer containing 0.1% bovine serum albumin, pH 7.4) at 25° C. for 2 hours, and then the mixture was filtered with a glassfilter GF/C treated with polyethyleneimine. After the glassfilter was washed with 50 mM Tris-HCl buffer (pH 7.4), the radioactivity on the filter was measured with a gamma counter. The non-specific binding was detected in the presence of 200 nM of peptide YY. The 50% inhibitory concentration of the test compound against the specific peptide YY binding (IC50 value) was calculated (Inui, A. et al. Endocrinology 131, 2090-2096 (1992)).
(§2) Using the membranes prepared from Y1-expression cells (human neuroblastoma, SK-N-MC) and the membranes prepared from Y2-expression cells (human neuroblastoma, SMS-KAN), the experiment was carried out in a similar way as Experiment 1 to determine the affinity for NPY Y1 receptor and NPY Y2 receptor.

The next assay deals with T3, NPY Y2 receptor (Homo sapiens, UniProt P49146).
T3 construct: membranes prepared from Y2-expression cells (human neuroblastoma, SMS-KAN); endogenous in cells; host or cells: SMS-KAN human neuroblastoma cells (membranes)
T3 sequence (P49146 1-381): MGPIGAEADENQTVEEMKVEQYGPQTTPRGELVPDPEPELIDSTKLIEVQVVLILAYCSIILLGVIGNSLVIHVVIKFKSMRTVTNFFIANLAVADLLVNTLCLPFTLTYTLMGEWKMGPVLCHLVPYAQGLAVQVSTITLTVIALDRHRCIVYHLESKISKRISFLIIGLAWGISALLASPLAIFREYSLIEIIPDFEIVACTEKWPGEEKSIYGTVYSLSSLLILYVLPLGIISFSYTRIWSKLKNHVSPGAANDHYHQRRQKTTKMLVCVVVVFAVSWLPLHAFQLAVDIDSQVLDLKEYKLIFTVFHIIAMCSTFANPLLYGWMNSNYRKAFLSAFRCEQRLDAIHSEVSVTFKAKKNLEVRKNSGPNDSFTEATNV
In words: Affinity for NPY Y2 receptor (membranes from SMS-KAN cells). The settings on record: membranes from Y2-expression cells (human neuroblastoma, SMS-KAN); read-out: Binding IC50 for NPY Y2 receptor. On the procedure: as §1, §2

As a reminder, the IC50 is the point on the concentration scale where inhibition reaches its midpoint.

Take `CC(C)(C)S(=O)(=O)NC1CCC(C(=O)Nc2ccc3oc(=O)ccc3c2)CC1` (stereo not drawn) [Ia-62]: the IC50 was 1.1 nM at human NPY Y5 receptor [1], 29 nM against human NPY Y5 receptor [2], at least 100000 nM at NPY Y1 receptor and at least 100000 nM at NPY Y2 receptor.

As to `C[C@@H]1CN(c2ccc(NC(=O)N3CCC(NS(=O)(=O)C(C)(C)C)CC3)cc2)C[C@H](C)O1` [Ia-67], the IC50 on human NPY Y5 receptor [1] was 6.3 nM; at human NPY Y5 receptor [2], 75 nM; at NPY Y1 receptor it was at least 100000 nM; on NPY Y2 receptor it was at least 100000 nM.

For the compound `C[C@@H]1CN(c2ccc(NC(=O)c3ccc(NS(=O)(=O)C(C)(C)C)cc3)cc2)C[C@H](C)O1` [Ia-124], the half-inhibitory concentration (IC50) at human NPY Y5 receptor [1] is 1.1 nM; against human NPY Y5 receptor [2] it was 22 nM; on NPY Y1 receptor, at least 100000 nM; on NPY Y2 receptor, at least 100000 nM.

Regarding `CC(C)(C)S(=O)(=O)Nc1ccc(C(=O)Nc2ccc3ncsc3c2)cc1` [Ia-126], the half-maximal inhibitory concentration (IC50) at human NPY Y5 receptor [1] was 2.3 nM; at human NPY Y5 receptor [2], 58 nM; on NPY Y1 receptor, at least 100000 nM; on NPY Y2 receptor it was at least 100000 nM.

Consider `CC(C)(C)S(=O)(=O)Nc1ccc(C(=O)Nc2ccc(N3CC=CC3)cc2)cc1` [Ia-139], for which the half-inhibitory concentration (IC50) on human NPY Y5 receptor [1] is 1.9 nM; on human NPY Y5 receptor [2], 25 nM; at NPY Y1 receptor, at least 100000 nM; on NPY Y2 receptor, at least 100000 nM.

`CC(C)S(=O)(=O)NC1CCC(C(=O)Nc2ccc(C(F)(F)F)cc2)CC1` (stereo not drawn) [Ia-140]: the IC50 was 1 nM on human NPY Y5 receptor [1], 24 nM against human NPY Y5 receptor [2], at least 100000 nM on NPY Y1 receptor and at least 100000 nM on NPY Y2 receptor.

With `CC(C)(C)S(=O)(=O)NC1CCC(C(=O)Nc2ccc(C(F)(F)F)cn2)CC1` (stereo not drawn) [Ia-178], the concentration for half-maximal inhibition (IC50) on human NPY Y5 receptor [1] is 4.6 nM; against human NPY Y5 receptor [2], 16 nM; on NPY Y1 receptor, at least 100000 nM; on NPY Y2 receptor, at least 100000 nM.

As for `CC(C)S(=O)(=O)NC1CCC(C(=O)Nc2cccc(OC3CCCC3)c2)CC1` (stereo not drawn) [Ia-199], the IC50 on human NPY Y5 receptor [1] was 0.11 nM; at human NPY Y5 receptor [2] it was 1.6 nM; on NPY Y1 receptor it was at least 100000 nM; on NPY Y2 receptor, at least 100000 nM.

In the case of `CC(C)(C)S(=O)(=O)NC1CCC(C(=O)Nc2ccc(OC3CCOCC3)cc2)CC1` (stereo not drawn) [Ia-200], the IC50 at human NPY Y5 receptor [1] is 1.4 nM; at human NPY Y5 receptor [2] it was 18 nM; at NPY Y1 receptor it was at least 100000 nM; on NPY Y2 receptor it was at least 100000 nM.
